Patent US20160215305A1, “Process of Fermenting A Lignocellulosic Biomass” (priority 2015, published 2016)
Where “and” joins values, the source holds several entries; their conditions need not be identical. Identical values can stand only once.

Each compound was assayed on S. cerevisiae (assay: Batch fermentation of amino acid detoxified loblolly pine hydrolysates by Baker yeast). Settings: hydrolysates detoxified with amino acid 0.2% w/v, pH 6.0, 60° C., 2 hours.
Type: cell-based, Saccharomyces cerevisiae
Excerpt: Loblolly pine (Pinus taeda) wood chips (1.0×1.0 cm, L×W) were collected by Forest Products Laboratory at Auburn University, located in Auburn, Ala. Dilute acid pretreatment was used to produce biomass hydrolysates in a 4.0 L Parr batch reactor (Parr Instrument Co., Moline, Ill.) as previously described (Lai, C. H., Tu, M. B., Li, M., Yu, S. Y. 2014. Remarkable solvent and extractable lignin effects on enzymatic digestibility of organosolv pretreated hardwood. Bioresource Technology, 156, 92-98). Briefly, wood chips (400 grams, dry weight) were soaked in 1% (w/w) sulfuric acid overnight (7:1 liquor/solid ratio) prior to the pretreatment, and then loaded into a reactor and treated at 170° C. for 60 minutes.
To achieve higher ethanol titer in fermentation, loblolly pine hydrolysates were concentrated to approximately one-third of its original volume using a rotary evaporator (IKA RV10 basic) at 40° C. and 60 rotations per minute (rpm). The hydrolysates were first adjusted to pH 4.0 before evaporation. After the concentration, the sugar contents of the hydrolysates were analyzed by HPLC.
[…] The detoxification experiments were performed in a 250 mL flask and placed in a temperature-controlled water batch.
Baker yeast (Fleischmann's), S. cerevisiae, was used for all the fermentation experiments in this study. The yeast was maintained on YDP medium containing (g/L): 20 glucose, 20 peptone, 10 yeast extract and 20 agar. Isolated colony was grown in YDP liquid medium overnight and harvested as fermentation inoculum. The yeast concentration was measured using an UV-vis spectrophotometer. Inoculum of 2.0 g/L was used for all fermentation experiments.
Batch fermentation was carried out in 125 mL serum bottles containing 50 mL broths (untreated or detoxified hydrolysates, untreated or detoxified cinnamaldehyde sugar solution) without any additional nutrient supplement. All the fermentation broths were adjusted to pH 6 with NaOH or H2SO4 and sterilized by passing 0.2 μm sterile filters. After inoculation, the serum bottle was sealed with rubber stopper and aluminum seal, and equipped with cannulas for CO2 release. All fermentation experiments were incubated at 30° C., spun at 150 rpm in a shaker (E24, New Brunswick Scientific). Aliquots of samples were withdrawn at 0, 1, 3, 6, 9, 12, 24, 36 and 48 hours for the time course analysis of both starting material and products. Fermentation was carried out in duplicate. The volumetric ethanol productivity and initial consumption rate of glucose (RG) and mannose (RM) was calculated based on the sugar consumed in the first 6 h of fermentation as described previously (Cao, D. X., Tu, M. B., Xie, R., Li, J., Wu, Y. N., Adhikari, S. 2014. Inhibitory Activity of Carbonyl Compounds on Alcoholic Fermentation by Saccharomyces cerevisiae. Journal of Agricultural and Food Chemistry, 62(4), 918-926).
Ethanol, acetic acid, levulinic acid, formic acid, furfural and HMF were analyzed using an Aminex HPX-87H column (300×7.8 mm) with a refractive index detector. The elution conditions were column temperature of 45° C. and flow rate of 0.6 ml/min with 5.0 mM H2SO4 as the mobile phase in a 60 min isocratic run.
C[C@H](N)C(=O)O [Alanine, alanine] was tested, and the “CEtOH, ethanol final concentration at 48 h” value (“CEtOH … at 48 h” for short) was 2.14 ± 0.01 g/L, the “CHMF, percentage of HMF consumed at 48 h” value was 11.03 ± 1.64% and the “QEtOH, volumetric ethanol productivity in the first 6 h” value (from here on “QEtOH, volumetric ethanol productivity”) was 0.28 ± 0.00 g/L/h. The “RG, glucose consumption rate in the first 6 h” value (shortened to “RG, glucose consumption rate”) was 0.21 ± 0.02 g/L/h, the “RM, mannose consumption rate in the first 6 h” value (“RM, mannose consumption rate” below) was 0.44 ± 0.07 g/L/h and the “YEtOH, ethanol yield from total glucose and mannose at 48 h” value (from here on “YEtOH, ethanol yield”) was 0.04 ± 0.00 g/g.
N=C(N)NCCC[C@H](N)C(=O)O [Arginine, arginine] was tested, and the “CEtOH … at 48 h” value was 2.62 ± 0.03 g/L, the “CHMF, percentage of HMF consumed at 48 h” value was 12.69 ± 0.27% and the “QEtOH, volumetric ethanol productivity” value was 0.34 ± 0.01 g/L/h. The “RG, glucose consumption rate” value was 0.29 ± 0.02 g/L/h, the “RM, mannose consumption rate” value was 0.59 ± 0.07 g/L/h and the “YEtOH, ethanol yield” value was 0.05 ± 0.00 g/g.
With NC(=O)C[C@H](N)C(=O)O [Asparagine, asparagine] the “CEtOH … at 48 h” value was 11.18 ± 0.15 g/L, the “QEtOH, volumetric ethanol productivity” value was 0.58 ± 0.01 g/L/h and the “RG, glucose consumption rate” value was 0.65 ± 0.01 g/L/h. For the same compound, the “RM, mannose consumption rate” value was 0.87 ± 0.10 g/L/h.
N[C@@H](CC(=O)O)C(=O)O [Aspartate, aspartate] was tested, and the “CEtOH … at 48 h” value was 3.86 ± 0.18 g/L, the “CHMF, percentage of HMF consumed at 48 h” value was 16.27 ± 0.30% and the “QEtOH, volumetric ethanol productivity” value was 0.47 ± 0.00 g/L/h. For the same compound, the “RG, glucose consumption rate” value was 0.43 ± 0.02 g/L/h, the “RM, mannose consumption rate” value was 0.90 ± 0.01 g/L/h and the “YEtOH, ethanol yield” value was 0.07 ± 0.00 g/g.
With N[C@@H](CCC(=O)O)C(=O)O [Glutamate, glutamate] the “CEtOH … at 48 h” value was 3.63 ± 0.23 g/L, the “CHMF, percentage of HMF consumed at 48 h” value was 15.40 ± 0.72% and the “QEtOH, volumetric ethanol productivity” value was 0.41 ± 0.01 g/L/h. For the same compound, the “RG, glucose consumption rate” value was 0.34 ± 0.02 g/L/h, the “RM, mannose consumption rate” value was 0.56 ± 0.03 g/L/h and the “YEtOH, ethanol yield” value was 0.07 ± 0.00 g/g.
With NC(=O)CC[C@H](N)C(=O)O [Glutamine, glutamine] the “CEtOH … at 48 h” value was 3.52 ± 0.06 g/L, the “CHMF, percentage of HMF consumed at 48 h” value was 13.38 ± 0.99% and the “QEtOH, volumetric ethanol productivity” value was 0.40 ± 0.00 g/L/h. For the same compound, the “RG, glucose consumption rate” value was 0.38 ± 0.02 g/L/h, the “RM, mannose consumption rate” value was 0.73 ± 0.01 g/L/h and the “YEtOH, ethanol yield” value was 0.06 ± 0.01 g/g.
With N[C@@H](Cc1c[nH]cn1)C(=O)O [Histidine, histidine] the “CEtOH … at 48 h” value was 23.07 ± 0.35 g/L, the “QEtOH, volumetric ethanol productivity” value was 0.78 ± 0.00 g/L/h and the “RG, glucose consumption rate” value was 0.94 ± 0.00 g/L/h. For the same compound, the “RM, mannose consumption rate” value was 1.02 ± 0.01 g/L/h and the “YEtOH, ethanol yield” value was 0.42 ± 0.01 g/g.
For CC[C@H](C)[C@H](N)C(=O)O [Isoleucine, isoleucine], the “CEtOH … at 48 h” value was 5.03 ± 1.46 g/L, the “CHMF, percentage of HMF consumed at 48 h” value was 17.36 ± 3.50% and the “QEtOH, volumetric ethanol productivity” value was 0.44 ± 0.08 g/L/h. The “RG, glucose consumption rate” value was 0.37 ± 0.02 g/L/h, the “RM, mannose consumption rate” value was 0.66 ± 0.06 g/L/h and the “YEtOH, ethanol yield” value was 0.09 ± 0.03 g/g.
CC(C)C[C@H](N)C(=O)O [Leucine, leucine] was tested, and the “CEtOH … at 48 h” value was 2.83 ± 0.19 g/L, the “CHMF, percentage of HMF consumed at 48 h” value was 12.84 ± 1.32% and the “QEtOH, volumetric ethanol productivity” value was 0.34 ± 0.01 g/L/h. The “RG, glucose consumption rate” value was 0.27 ± 0.04 g/L/h, the “RM, mannose consumption rate” value was 0.64 ± 0.12 g/L/h and the “YEtOH, ethanol yield” value was 0.05 ± 0.00 g/g.
With NCCCC[C@H](N)C(=O)O [Lysine, lysine] the “CEtOH … at 48 h” value was 14.40 ± 0.57 g/L, the “QEtOH, volumetric ethanol productivity” value was 0.72 ± 0.01 g/L/h and the “RG, glucose consumption rate” value was 0.80 ± 0.06 g/L/h. The “RM, mannose consumption rate” value was 1.09 ± 0.13 g/L/h.
For CSCC[C@H](N)C(=O)O [Methionine, methionine], the “CEtOH … at 48 h” value was 3.11 ± 0.02 g/L, the “CHMF, percentage of HMF consumed at 48 h” value was 12.78 ± 0.10% and the “QEtOH, volumetric ethanol productivity” value was 0.31 ± 0.00 g/L/h. The “RG, glucose consumption rate” value was 0.27 ± 0.01 g/L/h, the “RM, mannose consumption rate” value was 0.63 ± 0.02 g/L/h and the “YEtOH, ethanol yield” value was 0.06 ± 0.00 g/g.
For N[C@@H](Cc1ccccc1)C(=O)O [Phenylalanine, phenylalanine], the “CEtOH … at 48 h” value was 1.87 ± 0.02 g/L, the “CHMF, percentage of HMF consumed at 48 h” value was 12.69 ± 1.12% and the “QEtOH, volumetric ethanol productivity” value was 0.28 ± 0.00 g/L/h. The “RG, glucose consumption rate” value was 0.24 ± 0.01 g/L/h, the “RM, mannose consumption rate” value was 0.56 ± 0.01 g/L/h and the “YEtOH, ethanol yield” value was 0.03 ± 0.00 g/g.
For O=C(O)[C@@H]1CCCN1 [Proline, proline], the “CEtOH … at 48 h” value was 3.12 ± 0.13 g/L, the “CHMF, percentage of HMF consumed at 48 h” value was 13.35 ± 1.05% and the “QEtOH, volumetric ethanol productivity” value was 0.33 ± 0.00 g/L/h. For the same compound, the “RG, glucose consumption rate” value was 0.27 ± 0.05 g/L/h, the “RM, mannose consumption rate” value was 0.67 ± 0.18 g/L/h and the “YEtOH, ethanol yield” value was 0.06 ± 0.00 g/g.
In the case of N[C@@H](CO)C(=O)O [Serine, serine], the “CEtOH … at 48 h” value is reported as 3.87 ± 0.08 g/L, the “CHMF, percentage of HMF consumed at 48 h” value is reported as 15.66 ± 0.11% and the “QEtOH, volumetric ethanol productivity” value is reported as 0.45 ± 0.00 g/L/h. The “RG, glucose consumption rate” value was 0.38 ± 0.00 g/L/h, the “RM, mannose consumption rate” value was 0.65 ± 0.13 g/L/h and the “YEtOH, ethanol yield” value was 0.07 ± 0.00 g/g.
In the case of C[C@@H](O)[C@H](N)C(=O)O [Threonine, threonine], the “CEtOH … at 48 h” value is reported as 3.96 ± 0.13 g/L, the “CHMF, percentage of HMF consumed at 48 h” value is reported as 16.19 ± 0.87% and the “QEtOH, volumetric ethanol productivity” value is reported as 0.41 ± 0.01 g/L/h. For the same compound, the “RG, glucose consumption rate” value was 0.36 ± 0.02 g/L/h, the “RM, mannose consumption rate” value was 0.67 ± 0.03 g/L/h and the “YEtOH, ethanol yield” value was 0.07 ± 0.00 g/g.
In the case of N[C@@H](Cc1c[nH]c2ccccc12)C(=O)O [Tryptophan, tryptophan], the “CEtOH … at 48 h” value is reported as 11.59 ± 0.25 g/L, the “QEtOH, volumetric ethanol productivity” value is reported as 0.63 ± 0.01 g/L/h and the “RG, glucose consumption rate” value is reported as 0.69 g/L/h and 0.69 ± 0.00 g/L/h. For the same compound, the “RM, mannose consumption rate” value was 0.89 g/L/h and 0.89 ± 0.04 g/L/h.
With N[C@@H](Cc1ccc(O)cc1)C(=O)O [Tyrosine, tyrosine] the “CEtOH … at 48 h” value was 2.16 ± 0.25 g/L, the “CHMF, percentage of HMF consumed at 48 h” value was 12.17 ± 0.92% and the “QEtOH, volumetric ethanol productivity” value was 0.30 ± 0.02 g/L/h. The “RG, glucose consumption rate” value was 0.25 ± 0.02 g/L/h, the “RM, mannose consumption rate” value was 0.59 ± 0.05 g/L/h and the “YEtOH, ethanol yield” value was 0.04 ± 0.00 g/g.
CC(C)[C@H](N)C(=O)O [Valine, valine] was tested, and the “CEtOH … at 48 h” value was 2.69 ± 0.18 g/L, the “CHMF, percentage of HMF consumed at 48 h” value was 12.66 ± 1.50% and the “QEtOH, volumetric ethanol productivity” value was 0.32 ± 0.00 g/L/h. For the same compound, the “RG, glucose consumption rate” value was 0.25 ± 0.00 g/L/h, the “RM, mannose consumption rate” value was 0.49 ± 0.03 g/L/h and the “YEtOH, ethanol yield” value was 0.05 ± 0.00 g/g.

Same assay, conditions: hydrolysates detoxified with amino acid 0.2% w/v, pH 6.0, 60° C., 2 hours; listed as asparagine
In the case of NC(=O)C[C@H](N)C(=O)O [Asparagine, asparagine], the “CEtOH … at 48 h” value is reported as 11.18 g/L, the “RG, glucose consumption rate” value is reported as 0.65 g/L/h and the “RM, mannose consumption rate” value is reported as 0.87 g/L/h.

Same assay, conditions: hydrolysates detoxified with amino acid 0.2% w/v, pH 6.0, 60° C., 2 hours; listed as histidine
In the case of N[C@@H](Cc1c[nH]cn1)C(=O)O [Histidine, histidine], the “CEtOH … at 48 h” value is reported as 23.07 g/L, the “RG, glucose consumption rate” value is reported as 0.94 g/L/h and the “RM, mannose consumption rate” value is reported as 1.02 g/L/h. The “YEtOH, ethanol yield” value was 0.42 g/g.

Same assay, conditions: hydrolysates detoxified with amino acid 0.2% w/v, pH 6.0, 60° C., 2 hours; listed as lysine
NCCCC[C@H](N)C(=O)O [Lysine, lysine] was tested, and the “CEtOH … at 48 h” value was 14.40 g/L, the “RG, glucose consumption rate” value was 0.80 g/L/h and the “RM, mannose consumption rate” value was 1.09 g/L/h.

Same assay, conditions: hydrolysates detoxified with amino acid 0.2% w/v, pH 6.0, 60° C., 2 hours; listed as tryptophan
In the case of N[C@@H](Cc1c[nH]c2ccccc12)C(=O)O [Tryptophan, tryptophan], the “CEtOH … at 48 h” value is reported as 11.59 g/L.

Same assay, conditions: pH 6.0, 60° C., 2 hours detoxification
For N[C@@H](Cc1c[nH]cn1)C(=O)O [Histidine, histidine], the “sugar consumption rate (glucose and mannose) less than those from cysteine detoxification” value was 50%.
